Earlier results as cited in patent US10765633B2, “Formulation comprising liposomes” (Eisai R&D Management Co., Ltd., priority 2018, dated 2020).

Test system: HDL
Details: binding of eritoran to HDL

CCCCCC/C=C\CCCCCCCCCC(=O)N[C@H]1[C@H](OC[C@H]2O[C@H](OP(=O)(O)O)[C@H](NC(=O)CC(=O)CCCCCCCCCCC)[C@@H](OCCCCCCCCCC)[C@@H]2O)O[C@H](COC)[C@@H](OP(=O)(O)O)[C@@H]1OCC[C@@H](CCCCCCC)OC [eritoran, Eritoran]
effect of binding to HDL on drug activity: time-dependent loss of drug activity
